# US20110045101A1, “FUNGICIDAL SUBSTITUTED AZOLES” (E.I. Du Pont De Nemours and Company, priority 2009, published 2011)
# Marks after values point to notes of the source that are not given here.
# Experiments:
# Type in all cases: in vivo
# Alternaria solani = test: Test D: tomato early blight, sprayed the day before inoculation, visual disease rating; conditions: 100 = 100% disease control; for pest or weed control at 40 ppm: Alternaria solani, 168 h
# Summary of the method: (§1)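 Plants received a run-off spray at 200 ppm (equivalent to 500 g/ha) or, for starred values, 40 ppm. Formulation used acetone at 3% of volume in a 50/50 acetone/water mix carrying 250 ppm Trem® 014.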
# Botrytis cinerea = test: Test C: tomato Botrytis on tomato seedlings, sprayed the day before inoculation, visual disease rating; conditions: 100 = 100% disease control; for pest or weed control at 40 ppm: Botrytis cinerea, 120 h
# Summary of the method: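 Rate: 200 ppm sprayed to run-off, corresponding to 500 g/ha; flagged values used 40 ppm. Vehicle was aqueous acetone (1:1) plus 250 ppm surfactant, compounds predissolved in acetone at 3% of volume. Plants were tomato seedlings.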
# [1] = system: Erysiphe graminis f. sp. tritici; test: Test J: wheat powdery mildew on wheat seedlings, sprayed the day before inoculation, visual disease rating; conditions: 100 = 100% disease control; for pest or weed control at 40 ppm: Blumeria graminis, 168 h
# Summary of the method: as §1
# [2] = system: Puccinia recondita f. sp. tritici; test: Test H: wheat leaf rust, test suspension sprayed after inoculation of wheat seedlings, visual disease rating; conditions: 100 = 100% disease control; for pest or weed control at 40 ppm: Puccinia recondita, 96 h
# Description: General protocol for preparing test suspensions for Tests A-J: The test compounds were first dissolved in acetone in an amount equal to 3% of the final volume and then suspended at the desired concentration (in ppm) in acetone and purified water (50/50 mix) containing 250 ppm of the surfactant Trem® 014 (polyhydric alcohol esters). The resulting test suspensions were then used in tests A-J. Spraying a 200 ppm test suspension to the point of run-off on the test plants was the equivalent of a rate of 500 g/ha. […] Wheat seedlings were inoculated with a spore suspension of Puccinia recondita f. sp. tritici (the causal agent of wheat leaf rust) and incubated in a saturated atmosphere at 20° C. for 24 h, and then moved to a growth chamber at 20° C. for 2 days. […] A dash (-) indicates no test results. All results are for 200 ppm except where followed by “*”, which indicates 40 ppm.
# [3] = system: Puccinia recondita f. sp. tritici; test: Test I: wheat leaf rust on wheat seedlings, sprayed the day before inoculation, visual disease rating; conditions: 100 = 100% disease control; for pest or weed control at 40 ppm: Puccinia recondita, 168 h
# Summary of the method: as §1
# Septoria nodorum = test: Test F: wheat glume blotch on wheat seedlings, sprayed the day before inoculation, visual disease rating; conditions: 100 = 100% disease control; for pest or weed control at 40 ppm: Parastagonospora nodorum, 264 h
# Summary of the method: as §1
# Septoria tritici = test: Test G: wheat leaf blotch on wheat seedlings, sprayed the day before inoculation, visual disease rating; conditions: 100 = 100% disease control; for pest or weed control at 40 ppm: Zymoseptoria tritici, 504 h
# Summary of the method: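 Wheat seedlings were sprayed with compound suspensions, 200 ppm unless starred (40 ppm). After next-day spore inoculation, plants spent 48 h saturated at 24° C, then 19 days at 20° C, when disease was rated visually.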
# [4] = 200 ppm, 0 = no control relative to controls
Structure (SMILES),Test D disease control rating (Alternaria solani; [4]),Test C disease control rating (Botrytis cinerea; [4]),"Test J disease control rating [1, 4]","Test H disease control rating [2, 4]","Test I disease control rating [3, 4]",Test F disease control rating (Septoria nodorum; [4]),Test G disease control rating (Septoria tritici; [4]),other results
Fc1ccc(F)c(-c2c(Br)ncn2-c2ccc(Cl)cc2)c1Cl [compound 343],97%,100%,98%,0%,93%,64%,94%,
COc1cc(F)c(-c2c(Cl)nc(Cl)n2-c2cccnc2C)c(F)c1 [compound 675],100%,100%,100%,100%,100%,99%,98%,
CN(C)c1c(Cl)cc(-n2cnc(Cl)c2-c2c(F)cccc2F)cc1Cl [compound 652],,,,,,,,Test D disease control rating (Alternaria solani; 40 ppm (marked *)): 0* %; Test C disease control rating (Botrytis cinerea; 40 ppm (marked *)): 0* %; Test J disease control rating ([1]; 40 ppm (marked *)): 0* %; Test H disease control rating ([2]; 40 ppm (marked *)): 6* %; Test I disease control rating ([3]; 40 ppm (marked *)): 0* %; Test F disease control rating (Septoria nodorum; 40 ppm (marked *)): 0* %; Test G disease control rating (Septoria tritici; 40 ppm (marked *)): 0* %
COc1cc(F)c(-c2c(C)nc(Cl)n2-c2ccc(OC)nc2)c(F)c1 [compound 737],100%,100%,100%,100%,100%,100%,100%,
COc1ccc(Cl)c(-c2c(Cl)ncn2-c2ccc(Cl)cc2)c1F [compound 482],99%,99%,99%,0%,91%,69%,95%,
"COc1cc(F)c(-n2c(Cl)nc(C)c2-c2ccc(Cl)nc2)c(F)c1 [Compound 696, 2-chloro-5-[2-chloro-1-(2,6-difluoro-4-methoxyphenyl)-4-methyl-1H-imidazol-5-yl]pyridine]",,,,,,,,pest or weed control at 40 ppm (Alternaria solani; 40 ppm (marked *)): 100%; pest or weed control at 40 ppm (Botrytis cinerea; 40 ppm (marked *)): 100%; pest or weed control at 40 ppm ([1]; 40 ppm (marked *)): 100%; pest or weed control at 40 ppm ([2]; 40 ppm (marked *)): 99%; pest or weed control at 40 ppm ([3]; 40 ppm (marked *)): 99%; pest or weed control at 40 ppm (Septoria nodorum; 40 ppm (marked *)): 100%; pest or weed control at 40 ppm (Septoria tritici; 40 ppm (marked *)): 99%
N#Cc1ccc(F)c(-c2c(Cl)nc(Cl)n2-c2cccc(F)c2)c1F [compound 681],100%,99%,100%,0%,99%,98%,99%,
COc1ccc(F)c(-c2c(Cl)nc(C)n2Cc2ccc(Cl)cc2)c1F [compound 294],,,,,,,,"Test D disease control rating (Alternaria solani; 200 ppm, 0 = no control): 100%; Test C disease control rating (Botrytis cinerea; 200 ppm, 0 = no control): 99%; Test J disease control rating ([1]; 200 ppm, 0 = no control): 97%; Test H disease control rating ([2]; 200 ppm, 0 = no control): 11%; Test I disease control rating ([3]; 200 ppm, 0 = no control): 98%; Test F disease control rating (Septoria nodorum; 200 ppm, 0 = no control): 98%; Test G disease control rating (Septoria tritici; 200 ppm, 0 = no control): 96%"
COc1cc(F)c(-n2c(Br)nc(C)c2-c2ccc(C)cc2)c(F)c1 [compound 525],,,,,,,,Test D disease control rating (Alternaria solani; 40 ppm (marked *)): 100* %; Test C disease control rating (Botrytis cinerea; 40 ppm (marked *)): 100* %; Test J disease control rating ([1]; 40 ppm (marked *)): 98* %; Test H disease control rating ([2]; 40 ppm (marked *)): 68* %; Test I disease control rating ([3]; 40 ppm (marked *)): 100* %; Test F disease control rating (Septoria nodorum; 40 ppm (marked *)): 80* %; Test G disease control rating (Septoria tritici; 40 ppm (marked *)): 98* %
COc1cc(Cl)c(-c2c(Cl)nc(Br)n2-c2ccc(Cl)c(F)c2)c(Cl)c1 [compound 574],0%,100%,97%,0%,98%,60%,100%,
COc1ccc(F)c(-c2c(Br)nc(Cl)n2-c2ccc(F)cc2)c1F [compound 472],100%,100%,100%,80%,100%,100%,96%,
Fc1ccc(-n2c(Cl)nc(Br)c2-c2c(F)ccc(F)c2F)cc1 [compound 352],100%,100%,77%,18%,97%,87%,92%,
"COc1cc(F)c(-n2cnc(C)c2-c2ccc(Cl)nc2)c(F)c1 [Compound 685, 2-chloro-5-[1-(2,6-difluoro-4-methoxyphenyl)-4-methyl-1H-imidazol-5-yl]pyridine]",,,,,,,,pest or weed control at 40 ppm (Alternaria solani; 40 ppm (marked *)): 99%; pest or weed control at 40 ppm (Botrytis cinerea; 40 ppm (marked *)): 100%; pest or weed control at 40 ppm ([1]; 40 ppm (marked *)): 64%; pest or weed control at 40 ppm ([2]; 40 ppm (marked *)): 0%; pest or weed control at 40 ppm ([3]; 40 ppm (marked *)): 68%; pest or weed control at 40 ppm (Septoria nodorum; 40 ppm (marked *)): 0%; pest or weed control at 40 ppm (Septoria tritici; 40 ppm (marked *)): 87%
COc1ccc(Cl)c(-c2c(Cl)nc(Br)n2-c2ccc(Cl)cc2)c1F [compound 512],98%,97%,99%,40%,79%,0%,98%,
COc1cc(F)c(-c2c(Cl)nc(Cl)n2-c2ccc(OC)c(Cl)c2)c(F)c1 [compound 646],,,,,,,,Test D disease control rating (Alternaria solani; 40 ppm (marked *)): 47* %; Test C disease control rating (Botrytis cinerea; 40 ppm (marked *)): 93* %; Test J disease control rating ([1]; 40 ppm (marked *)): 35* %; Test H disease control rating ([2]; 40 ppm (marked *)): 0* %; Test I disease control rating ([3]; 40 ppm (marked *)): 92* %; Test F disease control rating (Septoria nodorum; 40 ppm (marked *)): 0* %; Test G disease control rating (Septoria tritici; 40 ppm (marked *)): 97* %
COc1cc(F)c(-c2c(Cl)nc(C)n2-c2cccc(OC(F)(F)F)c2)c(F)c1 [compound 589],99%,100%,100%,97%,100%,98%,98%,
COc1cc(F)c(-c2c(Cl)nc(Cl)n2-c2cccnc2Br)c(F)c1 [compound 576],99%,100%,99%,100%,100%,100%,100%,
Cc1nc(Br)n(-c2ccc(F)cc2Cl)c1-c1ccc(Cl)cc1 [compound 339],99%,100%,96%,0%,96%,78%,95%,
Cc1ccc(-n2c(Cl)nc(Cl)c2-c2c(F)cccc2F)nc1 [compound 577],100%,100%,100%,97%,100%,87%,100%,
Fc1cccc(F)c1-c1c(Cl)nc(Cl)n1-c1cccnc1Cl [compound 617],99%,99%,99%,100%,100%,0%,100%,
